“And” between values parts separate entries of the source, which are not always exact repeats. Identical values can stand only once.
Details: Liquid

CC(C)CCCCCCCOC(=O)c1ccccc1C(=O)OCCCCCCCC(C)C
Details | mass density, Vibrating tube method | viscosity, Falling or rolling sphere viscometry
333.15 K, 10000 kPa | 944.8 kg/m3 and 945.3 kg/m3 | –
333.15 K, 20000 kPa | 951 kg/m3 and 951.5 kg/m3 and 950.9 kg/m3 | 23.5 mPa·s and 22.4 mPa·s and 23.2 mPa·s
333.15 K, 30000 kPa | 956.7 kg/m3 and 957.1 kg/m3 and 956.6 kg/m3 | 28.2 mPa·s and 26.8 mPa·s and 27.8 mPa·s
333.15 K, 40000 kPa | 962.1 kg/m3 and 962.5 kg/m3 and 962 kg/m3 | 33.7 mPa·s and 31.9 mPa·s and 33.1 mPa·s
333.15 K, 50000 kPa | 967.2 kg/m3 and 967.6 kg/m3 and 967.1 kg/m3 | 40 mPa·s and 37.8 mPa·s and 39.3 mPa·s
333.15 K, 60000 kPa | 972.1 kg/m3 and 972.5 kg/m3 and 972 kg/m3 | 47.5 mPa·s and 44.5 mPa·s and 46.6 mPa·s
333.15 K, 70000 kPa | 976.7 kg/m3 and 977.1 kg/m3 and 976.6 kg/m3 | –
348.15 K, 100 kPa | 927.9 kg/m3 and 928.3 kg/m3 and 927.7 kg/m3 | –
348.15 K, 1000 kPa | 928.5 kg/m3 and 929 kg/m3 and 928.4 kg/m3 | –
348.15 K, 5000 kPa | 931.4 kg/m3 and 931.8 kg/m3 and 931.2 kg/m3 | –
348.15 K, 10000 kPa | 934.8 kg/m3 and 935.3 kg/m3 and 934.7 kg/m3 | –
348.15 K, 20000 kPa | 941.3 kg/m3 and 941.8 kg/m3 and 941.2 kg/m3 | –
348.15 K, 30000 kPa | 947.3 kg/m3 and 947.8 kg/m3 | –
348.15 K, 40000 kPa | 953 kg/m3 and 953.5 kg/m3 and 952.9 kg/m3 | –
348.15 K, 50000 kPa | 958.4 kg/m3 and 958.9 kg/m3 | –
348.15 K, 60000 kPa | 963.6 kg/m3 and 964 kg/m3 and 963.5 kg/m3 | –
348.15 K, 70000 kPa | 968.4 kg/m3 and 968.8 kg/m3 and 968.3 kg/m3 | –
353.15 K, 100 kPa | – | 8.42 mPa·s and 8.04 mPa·s and 8.35 mPa·s
353.15 K, 1000 kPa | – | 8.54 mPa·s and 8.16 mPa·s and 8.48 mPa·s
353.15 K, 5000 kPa | – | 9.14 mPa·s and 8.7 mPa·s and 9.06 mPa·s
353.15 K, 10000 kPa | – | 9.92 mPa·s and 9.43 mPa·s and 9.83 mPa·s
353.15 K, 20000 kPa | – | 11.7 mPa·s and 11 mPa·s and 11.5 mPa·s
353.15 K, 30000 kPa | – | 13.7 mPa·s and 12.9 mPa·s and 13.5 mPa·s
353.15 K, 40000 kPa | – | 16 mPa·s and 15.1 mPa·s and 15.8 mPa·s
353.15 K, 50000 kPa | – | 18.5 mPa·s and 17.5 mPa·s and 18.3 mPa·s
353.15 K, 60000 kPa | – | 21.5 mPa·s and 20.3 mPa·s and 21.2 mPa·s
373.15 K, 100 kPa | 909.5 kg/m3 and 910 kg/m3 and 909.4 kg/m3 | 5.05 mPa·s and 4.8 mPa·s and 5.09 mPa·s
373.15 K, 1000 kPa | 911 kg/m3 and 911.6 kg/m3 | 5.12 mPa·s and 4.87 mPa·s and 5.16 mPa·s
373.15 K, 5000 kPa | 914.3 kg/m3 and 914.8 kg/m3 and 914.2 kg/m3 | 5.44 mPa·s and 5.17 mPa·s and 5.47 mPa·s
373.15 K, 10000 kPa | 918.1 kg/m3 and 918.6 kg/m3 and 918 kg/m3 | 5.86 mPa·s and 5.57 mPa·s and 5.89 mPa·s
373.15 K, 20000 kPa | 925.3 kg/m3 and 925.9 kg/m3 and 925.2 kg/m3 | 6.79 mPa·s and 6.44 mPa·s and 6.8 mPa·s
373.15 K, 30000 kPa | 931.9 kg/m3 and 932.5 kg/m3 | 7.83 mPa·s and 7.42 mPa·s
373.15 K, 40000 kPa | 938.1 kg/m3 and 938.7 kg/m3 | 9 mPa·s and 8.52 mPa·s and 8.98 mPa·s
373.15 K, 50000 kPa | 943.9 kg/m3 and 944.6 kg/m3 and 944 kg/m3 | 10.3 mPa·s and 9.75 mPa·s
373.15 K, 60000 kPa | 949.5 kg/m3 and 950.1 kg/m3 | 11.7 mPa·s and 11.1 mPa·s
373.15 K, 70000 kPa | 954.7 kg/m3 and 955.2 kg/m3 and 954.6 kg/m3 | –
398.15 K, 100 kPa | 892.2 kg/m3 and 892.8 kg/m3 | –
398.15 K, 1000 kPa | 892.8 kg/m3 and 893.5 kg/m3 and 892.9 kg/m3 | –
398.15 K, 5000 kPa | 896.4 kg/m3 and 896.9 kg/m3 and 896.3 kg/m3 | –
398.15 K, 10000 kPa | 900.6 kg/m3 and 901.1 kg/m3 and 900.5 kg/m3 | –
398.15 K, 20000 kPa | 908.6 kg/m3 and 909.1 kg/m3 and 908.5 kg/m3 | –
398.15 K, 30000 kPa | 915.8 kg/m3 and 916.4 kg/m3 | –
398.15 K, 40000 kPa | 922.5 kg/m3 and 923.2 kg/m3 and 922.6 kg/m3 | –
398.15 K, 50000 kPa | 928.8 kg/m3 and 929.5 kg/m3 and 928.9 kg/m3 | –
398.15 K, 60000 kPa | 934.8 kg/m3 and 935.5 kg/m3 and 934.9 kg/m3 | –
398.15 K, 70000 kPa | 940.4 kg/m3 and 941 kg/m3 | –

Details | mass density, SVM3000 rotational viscometer | viscosity, Rotational Automated Viscometer
333.15 K | 938.7 kg/m3 and 938.3 kg/m3 | 15.79 mPa·s and 16.02 mPa·s and 15.97 mPa·s
338.15 K | 935.1 kg/m3 and 934.7 kg/m3 | 13.21 mPa·s and 13.4 mPa·s and 13.36 mPa·s
343.15 K | 931.6 kg/m3 and 931.1 kg/m3 | 11.18 mPa·s and 11.34 mPa·s and 11.31 mPa·s
348.15 K | 928 kg/m3 and 927.6 kg/m3 | 9.561 mPa·s and 9.696 mPa·s and 9.685 mPa·s
353.15 K | 924.4 kg/m3 and 924.1 kg/m3 | 8.257 mPa·s and 8.376 mPa·s and 8.37 mPa·s
358.15 K | 920.7 kg/m3 and 920.9 kg/m3 and 920.6 kg/m3 | 7.193 mPa·s and 7.3 mPa·s and 7.297 mPa·s
363.15 K | 917.2 kg/m3 and 917.4 kg/m3 and 917 kg/m3 | 6.329 mPa·s and 6.414 mPa·s and 6.412 mPa·s
368.15 K | 913.7 kg/m3 and 913.9 kg/m3 and 913.5 kg/m3 | 5.602 mPa·s and 5.677 mPa·s and 5.675 mPa·s
373.15 K | 910.3 kg/m3 and 910.5 kg/m3 and 910 kg/m3 | 4.989 mPa·s and 5.059 mPa·s and 5.057 mPa·s
